Experimental data: US7056728B2, “Compositions and methods for use thereof in modifying the genomes of microorganisms” (priority 2000, dated 2006)

Experiments:
[1] = system: MRSA strain I6; test: antibiotic resistance of MRSA strain; format: cell-based, S. aureus
[2] = system: S. pneumoniae A66.1 Xen 10; set-up: species or system Streptococcus pneumoniae; details: in vivo
Protocol: Thus, the strains HUSTMBIG, A66.1, EF3030 and 140301 were made bioluminescent and tested in both mouse lung and nasopharyngeal models. Briefly, exponential cultures of S. pneumoniae grown at 37° C. in BHI were pelleted and then resuspended in fresh BHI broth. Bacterial concentrations were estimated spectrophotometrically by absorbance at 600 nm and adjusted to approximately […] by dilution BHI. Cell numbers were verified by plating dilutions of inoculum onto BHI agar.
Pneumococci were introduced into the lungs of the mice by either direct intratracheal inoculation, or by intranasal administration. The animals were anesthetized with ketamine (100 mg/ml) and xylazine (20 mg/ml), mixed at a 4:1 ratio v/v just before use. The anesthesia mixture was injected intramuscularly into the right hamstring muscle at a dose of 100 mg ketamine/kg of body weight. After anesthesia was established, the mice were inoculated with approximately 10^6 CFU in a total volume of 20 μl, using a 25 ga. Ball-tipped gavage needle. Mice were held in vertical suspension for 10 minutes after inoculation to facilitate deep penetration of the inoculum. Alternatively, mice were infected intranasally with approximately 10^6 CFU by placing 20 μl of bacterial suspension on the nares and allowing the mice to inhale the inoculum. In the antibiotic studies, mice were treated with amoxicillin at 1 mg/kg or 5 mg/kg, given subcutaneously at t=0, 18, 24, and 42 hours post-infection.
Mice were imaged for a maximum of 5 min at a number of time points post-infection using an IVIS™ CCD camera (Xenogen Corporation, Alameda, Calif.). Total photon emission from selected and defined areas within the images of each mouse was quantified using the LivingImage™ software package (Xenogen Corporation, Alameda, Calif.). The photon signal from the thorax was quantified from the ventral image of each mouse.
Twelve mice were inoculated with approximately 10^6 CFU of S. pneumoniae A66.1 Xen 10. The mice were divided into three groups of four animals and two of these groups were treated with an amoxicillin regime at 1 or 5 mg/kg, the third group of animals remaining untreated as controls.
After the final imaging time point, mice were sacrificed and the infected lung tissue was surgically removed and weighed. Both lungs were homogenized together in 500 μl BHI in a loose Dounce homogenizer. The suspension was serially diluted in BHI and plated in duplicate onto BHI agar. Bacterial burden was estimated from the number of CFU/g of lung tissue. The bacterial load present in the nasal passage of the mice was obtained by washing approximately 0.25 ml of saline through the trachea and collecting the first 0.1 ml of nasal wash as it exited the nares, as described (Lipsitch et al. (2000) Vaccine 18:2895–2901; Wu et al. (1997) Microb. Pathog. 23:127–137).

[3] = system: S. pneumoniae pAUL-A Tn4001 luxABCDE km^R; test: growth and colony formation of S. pneumoniae transformants in the presence of kanamycin; format: cell-based, Streptococcus pneumoniae; details: 10^3 CFUs plated on chocolate agar, increasing kanamycin 400 to 1000 μg/ml; approximately 1000 CFUs without kanamycin

## O=C(N[C@H](CO)[C@H](O)c1ccc([N+](=O)[O-])cc1)C(Cl)Cl [chloremphenicol]
[1]
  resistance of strain to antibiotics tested: resistant to all the antibiotics tested except for chloremphenicol

## CC1(C)S[C@@H]2[C@H](NC(=O)[C@H](N)c3ccc(O)cc3)C(=O)N2[C@H]1C(=O)O [amoxicillin]
[2]
  appearance of treated mice: appeared relatively healthy
  highest number of pneumococci isolated from a treated animal (lung tissue): 300 CFU/g tissue
  treated animals showing no bacteria present in lung tissue: four of the eight
[2]; sc, 1 mg/kg
  animals with a bioluminescent signal: Three of the four
[2]; sc, 5 mg/kg
  animals with a significant bioluminescent signal: None of the four

## NC[C@H]1O[C@H](O[C@H]2[C@H](O)[C@@H](O[C@H]3O[C@H](CO)[C@@H](O)[C@H](N)[C@H]3O)[C@H](N)C[C@@H]2N)[C@H](O)[C@@H](O)[C@@H]1O [kanamycin]
[3]
  number of colonies (average): 56 to 35
